Measurements as given in patent EP1343508B1, “USE OF AN OESTROGEN IN THE MANUFACTURE OF A COMPOSITION CONTAINING OESTROGEN FOR THE TREATMENT OF ATROPHIC VAGINITIS” (Novo Nordisk Femcare AG, priority 2000, dated 2002).
Marks after values point to notes of the source that are not given here.

Tests used:
[1] = tested on: postmenopausal women with atrophic vaginitis; assay: Patients with vaginal pH below 5.5, Example 3; format: in vivo
Experimental: Efficacy was measured with composite scores of vaginal symptoms (dryness, soreness, and irritation) and vaginal health (secretions, epithelial integrity, surface thickness, and pH). Vaginal and urethral cytology analyses were also performed, and the vaginal maturation value was determined. Safety assessments included endometrial biopsies. […] All vaginal tablets were identical in appearance. Patients inserted 1 tablet daily for 14 days. Thereafter, patients inserted 1 tablet twice per week (Sunday and Thursday) for the remainder of the trial. Patients were to insert the tablets at the same time each day (preferably at bedtime). Patients were evaluated for efficacy and safety at Week - 4 (screening), Week 0 (baseline), and Weeks 2, 7, and 12. Investigators used a severity scale of none, mild, moderate, or severe to assess vaginal health characteristics (secretions, epithelial integrity, surface thickness, color, and pH). Severity categories were assigned ascending scores from 0 (none) to 3 (severe) for analysis. To avoid multiple endpoint issues, composite scores were defined. A composite score for vaginal health was defined as the average of the individual vaginal health characteristic scores. The composite score and the change from baseline for the composite score were examined at each time point. Differences within and between treatment groups were analyzed using an analysis of variance (ANOVA). […] Efficacy was measured with composite scores of vaginal symptoms (dryness, soreness, and irritation) and vaginal health (secretions, epithelial integrity, surface thickness, and pH). Vaginal and urethral cytology analyses were also performed, and the vaginal maturation value was determined. Safety assessments included endometrial biopsies. […] All vaginal tablets were identical in appearance. Patients inserted 1 tablet daily for 14 days. Thereafter, patients inserted 1 tablet twice per week (Sunday and Thursday) for the remainder of the trial. Patients were to insert the tablets at the same time each day (preferably at bedtime). Patients were evaluated for efficacy and safety at Week - 4 (screening), Week 0 (baseline), and Weeks 2, 7, and 12. Investigators used a severity scale of none, mild, moderate, or severe to assess vaginal health characteristics (secretions, epithelial integrity, surface thickness, color, and pH). Severity categories were assigned ascending scores from 0 (none) to 3 (severe) for analysis. To avoid multiple endpoint issues, composite scores were defined. A composite score for vaginal health was defined as the average of the individual vaginal health characteristic scores. The composite score and the change from baseline for the composite score were examined at each time point. Differences within and between treatment groups were analyzed using an analysis of variance (ANOVA).

[2] = tested on: superficial urethral cells; assay: Urethral cytology, percentage of superficial cells, Example 3; format: in vivo, postmenopausal women
Experimental: (§1) Efficacy was measured with composite scores of vaginal symptoms (dryness, soreness, and irritation) and vaginal health (secretions, epithelial integrity, surface thickness, and pH). Vaginal and urethral cytology analyses were also performed, and the vaginal maturation value was determined. Safety assessments included endometrial biopsies.
(§2) All vaginal tablets were identical in appearance. Patients inserted 1 tablet daily for 14 days. Thereafter, patients inserted 1 tablet twice per week (Sunday and Thursday) for the remainder of the trial. Patients were to insert the tablets at the same time each day (preferably at bedtime). Patients were evaluated for efficacy and safety at Week - 4 (screening), Week 0 (baseline), and Weeks 2, 7, and 12.
(§3) Vaginal and urethral cell samples were harvested and analyzed by independent cytologists to determine the percentages of parabasal, intermediate, and superficial cells. Maturation values were calculated according to the following equation: maturation value = 1.0 × [superficial cells, %] + 0.5 × [intermediate cells, %] [formula] Endometrial biopsies were performed at the end of the study in patients with intact uteri. The number of patients with abnormal biopsies was compared between treatment groups.

[3] = tested on: postmenopausal women with atrophic vaginitis; assay: Vaginal health composite score (investigator rating), Example 3; format: in vivo; settings: each treatment group (25 or 10 µg E2); Week 0 (baseline); scale 0-3
Experimental: Efficacy was measured with composite scores of vaginal symptoms (dryness, soreness, and irritation) and vaginal health (secretions, epithelial integrity, surface thickness, and pH). Vaginal and urethral cytology analyses were also performed, and the vaginal maturation value was determined. Safety assessments included endometrial biopsies. […] All vaginal tablets were identical in appearance. Patients inserted 1 tablet daily for 14 days. Thereafter, patients inserted 1 tablet twice per week (Sunday and Thursday) for the remainder of the trial. Patients were to insert the tablets at the same time each day (preferably at bedtime). Patients were evaluated for efficacy and safety at Week - 4 (screening), Week 0 (baseline), and Weeks 2, 7, and 12. […] Differences within and between treatment groups were analyzed using an analysis of variance (ANOVA). […] Efficacy was measured with composite scores of vaginal symptoms (dryness, soreness, and irritation) and vaginal health (secretions, epithelial integrity, surface thickness, and pH). Vaginal and urethral cytology analyses were also performed, and the vaginal maturation value was determined. […] Patients were evaluated for efficacy and safety at Week - 4 (screening), Week 0 (baseline), and Weeks 2, 7, and 12. […] Differences within and between treatment groups were analyzed using an analysis of variance (ANOVA).

[4] = tested on: endometrium; assay: Endometrial biopsy at end of study, Example 3; format: in vivo, postmenopausal women; settings: Week 12, N = 32
Experimental: as §1, §3

[5] = tested on: FSH; assay: Serum FSH concentration (immunoradiometric assay), Example 2; format: in vivo, postmenopausal women; settings: 25 µg E2; Week 12
Experimental: Maturation values of vaginal mucosal cells were assessed as an indicator of changes in the condition of the vaginal mucosa in response to treatment.
After the screening visit, patients received no study treatment during the 4-week run-in period prior to the baseline visit. […] The vaginal tablets were identical in appearance. Patients inserted 1 tablet intravaginally, once daily for the initial 2 weeks of the study and then twice per week (Sunday and Thursday) for the remaining 10 weeks. Patients were instructed to use their medication at a consistent time each day, preferably in the morning.
Upon presentation to the clinic for each visit, a vaginal cytology specimen was obtained. Patients then inserted the tablets. […] The blood samples obtained at 30 minutes before insertion, and at 6, 12, and 24 hours after insertion were also used to determine the FSH concentration via immunoradiometric assay.
Data for area under the curve and maximal concentration were converted to a logarithmic scale, and changes from first dose (at the baseline visit) in the logarithmic values were estimated using 95% confidence intervals derived from paired t-tests. […] Differences within treatment groups in FSH concentration were determined using the Wilcoxon signed rank test based on changes from baseline in mean concentrations at weeks 2 and 12. […]

[6] = tested on: vaginal mucosa; assay: Vaginal maturation value, Example 3; format: in vivo, postmenopausal women
Experimental: as §1, §2, §3

[7] = each treatment group (25 or 10 µg E2), Week 0

For `C[C@]12CC[C@@H]3c4ccc(O)cc4CC[C@H]3[C@@H]1CC[C@@H]2O` [E2, 17β-estradiol], the “Patients With Vaginal pH Values Below 5.5, (%)” value ([1]; 10 µg E2, Week 0) was “(30.3) %”, the “Patients With Vaginal pH Values Below 5.5, n/N” value ([1]; 10 µg E2, Week 0) was 27/89 and the “Patients With Vaginal pH Values Below 5.5, (%)” value ([1]; 10 µg E2, Week 2) was “(79.8)^b %”. For the same compound, the “Patients With Vaginal pH Values Below 5.5, n/N” value ([1]; 10 µg E2, Week 2) was 67/84, the “Patients With Vaginal pH Values Below 5.5, (%)” value ([1]; 10 µg E2, Week 7) was “(71.3)^c %” and the “Patients With Vaginal pH Values Below 5.5, n/N” value ([1]; 10 µg E2, Week 7) was 57/80. The “Patients With Vaginal pH Values Below 5.5, (%)” value ([1]; 10 µg E2, Week 12) was “(76.1)^b %”, the “Patients With Vaginal pH Values Below 5.5, n/N” value ([1]; 10 µg E2, Week 12) was 54/71 and the “Patients With Vaginal pH Values Below 5.5, (%)” value ([1]; 25 µg E2, Week 0) was “(34.4) %”. The “Patients With Vaginal pH Values Below 5.5, n/N” value ([1]; 25 µg E2, Week 0) was 31/90, the “Patients With Vaginal pH Values Below 5.5, (%)” value ([1]; 25 µg E2, Week 2) was “(73.6)^a %” and the “Patients With Vaginal pH Values Below 5.5, n/N” value ([1]; 25 µg E2, Week 2) was 64/87. The “Patients With Vaginal pH Values Below 5.5, n/N” value ([1]; 25 µg E2, Week 7) was 71/83, the “Patients With Vaginal pH Values Below 5.5, (%)” value ([1]; 25 µg E2, Week 12) was “(79.7)^b %” and the “Patients With Vaginal pH Values Below 5.5, n/N” value ([1]; 25 µg E2, Week 12) was 63/79. For the same compound, the “percentage of patients with vaginal pH values below 5.5” value [1, 7] was “approximately 35%”, the “percentage of superficial urethral cells, Mean” value ([2]; 10 µg E2, Week 0) was 2.5% and the “percentage of superficial urethral cells, Mean” value ([2]; 10 µg E2, Week 2) was 16.7%. For the same compound, the “percentage of superficial urethral cells, mean Change from baseline” value (“percentage … mean Change from baseline” below) ([2]; 10 µg E2, Week 2) was 14.1^c %, the “percentage of superficial urethral cells, Mean” value ([2]; 10 µg E2, Week 7) was 13.5% and the “percentage … mean Change from baseline” value ([2]; 10 µg E2, Week 7) was 10.7%. The “percentage of superficial urethral cells, Mean” value ([2]; 10 µg E2, Week 12) was 9.5%, the “percentage … mean Change from baseline” value ([2]; 10 µg E2, Week 12) was 6.8% and the “percentage of superficial urethral cells, Mean” value ([2]; 25 µg E2, Week 0) was 3.2%. For the same compound, the “percentage of superficial urethral cells, Mean” value ([2]; 25 µg E2, Week 2) was 21.9%, the “percentage … mean Change from baseline” value ([2]; 25 µg E2, Week 2) was 19.2^a,b % and the “percentage of superficial urethral cells, Mean” value ([2]; 25 µg E2, Week 7) was 17.6%. For the same compound, the “percentage … mean Change from baseline” value ([2]; 25 µg E2, Week 7) was 14.2^d %, the “percentage of superficial urethral cells, Mean” value ([2]; 25 µg E2, Week 12) was 11.2% and the “percentage … mean Change from baseline” value ([2]; 25 µg E2, Week 12) was 7.5%. The “vaginal health composite score” value [3] was “approximately 1.7”, the “Endometrial Biopsy Result Abnormal, percentage of patients” value ([4]; 10 µg E2) was 0.0% and the “Endometrial Biopsy Result Normal, number of patients” value ([4]; 10 µg E2) was 25. The “Endometrial Biopsy Result Normal, percentage of patients” value ([4]; 10 µg E2) was 78.1%, the “Endometrial Biopsy Result Other, number of patients” value ([4]; 10 µg E2) was 7 and the “Endometrial Biopsy Result Other, percentage of patients” value ([4]; 10 µg E2) was 21.9%. For the same compound, the “Endometrial Biopsy Result Abnormal, number of patients” value ([4]; 10 µg E2, hyperplasia or carcinoma) was 0, the “Endometrial Biopsy Result Abnormal, percentage of patients” value ([4]; 25 µg E2) was 3.1% and the “Endometrial Biopsy Result Normal, number of patients” value ([4]; 25 µg E2) was 28. For the same compound, the “Endometrial Biopsy Result Normal, percentage of patients” value ([4]; 25 µg E2) was 87.5%, the “Endometrial Biopsy Result Other, number of patients” value ([4]; 25 µg E2) was 3 and the “Endometrial Biopsy Result Other, percentage of patients” value ([4]; 25 µg E2) was 9.4%. For the same compound, the “patients with mean FSH concentrations below 35 mIU/mL” value [5] was 3 patients, the maturation values ([6]; active treatment groups (25 or 10 µg E2), Week 12) was “approximately 60%” and the maturation values [6, 7] was “approximately 45%”.
